Experimental data taken from PMC8041276 (ACS Chemical Neuroscience, 2021).

Experiments:
Assay in all cases: Eurofins Cerep off-target binding, % inhibition at 1 μM
D3 dopamine receptor = biological target: T1, D3 dopamine receptor (Homo sapiens, UniProt P35462)
T1 construct: Eurofins Cerep (contract assay)
Experimental: (§1) Additionally, the affinity of compound 27 at the adrenergic α1A, muscarinic M1, histaminergic H1, dopaminergic D3, serotoninergic 5-HT2C, 5-HT3 receptors, serotonin transporter (SERT), and the human ether-a-go-go-related gene (hERG) channel were evaluated in Eurofins Cerep.

M1 muscarinic receptor = biological target: T2, M1 muscarinic receptor (Homo sapiens, UniProt P11229)
T2 construct: Eurofins Cerep (contract assay)
T2 sequence (P11229 1-460): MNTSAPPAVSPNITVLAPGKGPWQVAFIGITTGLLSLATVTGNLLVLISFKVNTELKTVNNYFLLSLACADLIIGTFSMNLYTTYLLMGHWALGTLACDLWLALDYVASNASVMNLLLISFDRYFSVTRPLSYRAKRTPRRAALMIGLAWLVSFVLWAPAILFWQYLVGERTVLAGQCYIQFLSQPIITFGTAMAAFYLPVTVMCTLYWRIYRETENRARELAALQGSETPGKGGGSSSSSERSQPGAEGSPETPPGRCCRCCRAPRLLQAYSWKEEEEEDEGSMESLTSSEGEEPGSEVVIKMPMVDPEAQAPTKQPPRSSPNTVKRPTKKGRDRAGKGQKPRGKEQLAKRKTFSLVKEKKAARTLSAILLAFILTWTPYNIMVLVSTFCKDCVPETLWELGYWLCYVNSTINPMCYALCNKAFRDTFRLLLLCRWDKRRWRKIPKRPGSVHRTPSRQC
Experimental: as §1

hERG channel = biological target: T3, hERG channel (Homo sapiens, UniProt Q12809)
T3 construct: Eurofins Cerep (contract assay)
Experimental: as §1

[1] = biological target: T4, serotonin 5-HT2C receptor (Homo sapiens, UniProt P28335)
T4 construct: Eurofins Cerep (contract assay)
T4 sequence (P28335 33-458): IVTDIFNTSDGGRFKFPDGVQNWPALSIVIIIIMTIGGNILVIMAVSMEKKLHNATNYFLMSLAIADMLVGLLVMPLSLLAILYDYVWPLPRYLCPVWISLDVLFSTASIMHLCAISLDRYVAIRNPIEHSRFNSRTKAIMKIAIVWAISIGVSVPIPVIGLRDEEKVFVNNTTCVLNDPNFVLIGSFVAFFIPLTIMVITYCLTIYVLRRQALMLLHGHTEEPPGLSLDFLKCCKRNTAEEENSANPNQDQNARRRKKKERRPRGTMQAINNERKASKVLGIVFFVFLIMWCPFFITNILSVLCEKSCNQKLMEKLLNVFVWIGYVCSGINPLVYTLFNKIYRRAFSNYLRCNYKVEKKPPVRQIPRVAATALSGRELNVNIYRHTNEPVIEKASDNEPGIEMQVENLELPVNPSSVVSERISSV
Experimental: as §1

serotonin 5-HT3 receptor = biological target: T5, serotonin 5-HT3 receptor (Homo sapiens, UniProt P46098)
T5 construct: Eurofins Cerep (contract assay)
T5 sequence (P46098 24-478): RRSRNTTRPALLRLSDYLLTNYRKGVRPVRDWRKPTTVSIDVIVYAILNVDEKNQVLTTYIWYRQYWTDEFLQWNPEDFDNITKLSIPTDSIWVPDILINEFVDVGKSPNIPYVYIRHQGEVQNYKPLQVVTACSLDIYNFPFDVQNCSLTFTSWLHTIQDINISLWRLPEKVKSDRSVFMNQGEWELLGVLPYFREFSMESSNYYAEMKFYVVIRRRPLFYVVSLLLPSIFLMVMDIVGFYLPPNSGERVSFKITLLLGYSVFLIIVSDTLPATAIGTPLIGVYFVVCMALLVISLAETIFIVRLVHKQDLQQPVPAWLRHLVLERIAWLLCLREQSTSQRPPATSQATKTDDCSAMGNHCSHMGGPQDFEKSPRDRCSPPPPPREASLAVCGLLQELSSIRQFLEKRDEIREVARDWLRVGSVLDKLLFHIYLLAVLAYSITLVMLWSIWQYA
Experimental: as §1

[2] = biological target: T6, serotonin transporter (SERT) (Homo sapiens, UniProt P31645)
T6 construct: Eurofins Cerep (contract assay)
Experimental: as §1

T3 sequence (Q12809 whole entry): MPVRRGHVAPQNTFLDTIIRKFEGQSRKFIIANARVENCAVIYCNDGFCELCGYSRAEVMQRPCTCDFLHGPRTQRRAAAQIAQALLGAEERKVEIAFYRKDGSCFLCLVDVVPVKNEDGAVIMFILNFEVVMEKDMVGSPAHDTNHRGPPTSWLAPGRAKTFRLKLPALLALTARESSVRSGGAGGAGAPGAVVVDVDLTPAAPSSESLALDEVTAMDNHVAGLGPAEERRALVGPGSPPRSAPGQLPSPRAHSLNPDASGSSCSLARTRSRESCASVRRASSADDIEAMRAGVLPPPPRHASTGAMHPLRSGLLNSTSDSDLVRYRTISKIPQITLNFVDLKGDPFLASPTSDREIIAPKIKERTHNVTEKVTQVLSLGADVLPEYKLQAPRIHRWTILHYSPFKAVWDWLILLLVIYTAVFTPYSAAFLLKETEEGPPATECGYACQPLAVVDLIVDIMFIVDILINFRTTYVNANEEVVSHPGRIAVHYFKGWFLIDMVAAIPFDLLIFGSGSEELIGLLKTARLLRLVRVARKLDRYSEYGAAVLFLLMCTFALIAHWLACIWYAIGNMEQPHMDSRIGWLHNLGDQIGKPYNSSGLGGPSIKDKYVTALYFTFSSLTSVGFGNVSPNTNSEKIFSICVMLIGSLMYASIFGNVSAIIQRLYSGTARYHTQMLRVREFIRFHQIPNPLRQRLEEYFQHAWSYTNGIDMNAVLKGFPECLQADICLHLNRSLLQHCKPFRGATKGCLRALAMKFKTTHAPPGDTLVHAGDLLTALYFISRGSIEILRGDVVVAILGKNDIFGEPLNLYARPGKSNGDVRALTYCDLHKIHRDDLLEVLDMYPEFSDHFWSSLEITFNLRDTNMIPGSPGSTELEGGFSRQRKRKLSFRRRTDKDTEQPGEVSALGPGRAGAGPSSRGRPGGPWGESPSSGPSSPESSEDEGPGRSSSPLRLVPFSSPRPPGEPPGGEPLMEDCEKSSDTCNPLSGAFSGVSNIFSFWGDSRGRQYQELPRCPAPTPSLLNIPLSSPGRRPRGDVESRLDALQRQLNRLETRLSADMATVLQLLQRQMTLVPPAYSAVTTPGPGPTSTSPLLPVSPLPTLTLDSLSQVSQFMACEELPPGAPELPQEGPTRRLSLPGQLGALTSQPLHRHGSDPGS
T1 sequence (P35462 whole entry): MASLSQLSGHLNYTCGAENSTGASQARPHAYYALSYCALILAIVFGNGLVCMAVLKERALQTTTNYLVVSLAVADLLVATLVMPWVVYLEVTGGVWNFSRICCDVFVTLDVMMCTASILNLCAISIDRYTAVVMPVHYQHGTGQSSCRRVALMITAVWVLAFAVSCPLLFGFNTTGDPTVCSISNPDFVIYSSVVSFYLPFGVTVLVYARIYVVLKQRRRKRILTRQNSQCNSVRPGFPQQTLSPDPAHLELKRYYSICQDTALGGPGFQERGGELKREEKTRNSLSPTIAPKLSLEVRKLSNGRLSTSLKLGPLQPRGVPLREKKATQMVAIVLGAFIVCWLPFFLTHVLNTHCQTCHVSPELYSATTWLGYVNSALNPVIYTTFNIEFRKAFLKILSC
T6 sequence (P31645 whole entry, species assumed): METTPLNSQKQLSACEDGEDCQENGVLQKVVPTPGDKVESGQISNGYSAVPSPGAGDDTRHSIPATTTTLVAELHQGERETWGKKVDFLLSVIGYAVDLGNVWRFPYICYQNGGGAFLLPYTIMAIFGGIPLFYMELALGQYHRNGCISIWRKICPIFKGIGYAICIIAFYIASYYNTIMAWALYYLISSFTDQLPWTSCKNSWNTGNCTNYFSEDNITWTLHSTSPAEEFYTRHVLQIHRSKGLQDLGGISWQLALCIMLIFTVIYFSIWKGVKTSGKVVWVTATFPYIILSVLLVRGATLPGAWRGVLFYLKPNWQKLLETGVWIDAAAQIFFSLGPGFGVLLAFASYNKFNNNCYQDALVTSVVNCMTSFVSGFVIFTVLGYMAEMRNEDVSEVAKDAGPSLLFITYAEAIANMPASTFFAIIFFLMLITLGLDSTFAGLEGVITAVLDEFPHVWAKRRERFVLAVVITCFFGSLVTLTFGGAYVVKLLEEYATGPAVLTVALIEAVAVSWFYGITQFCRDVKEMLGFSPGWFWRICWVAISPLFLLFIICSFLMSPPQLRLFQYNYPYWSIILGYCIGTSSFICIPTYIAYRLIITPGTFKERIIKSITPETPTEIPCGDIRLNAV

## O=C(N[C@@H]1CCNC1)c1ccn(S(=O)(=O)c2cccc(Cl)c2)c1-c1ccc(F)cc1 [Compound 27, (R)-2-(4-Fluorophenyl)-1-[(3-chlorophenyl)sulfonyl]-N-(pyrrolidin-3-yl)-1H-pyrrole-3-carboxamide]
D3 dopamine receptor
  inhibition at 1 µM: 17%
M1 muscarinic receptor
  inhibition at 1 µM: 0%
hERG channel
  inhibition at 1 µM: 1%
[1]
  inhibition at 1 µM: 10%
Serotonin 5-HT3 receptor
  inhibition at 1 µM: 2%
[2]
  inhibition at 1 µM: 10%
